Laboratory results: US9090576B2, “2-substituted-p-quinone derivatives for treatment of oxidative stress diseases” (Edison Pharmaceuticals, Inc., priority 2008, dated 2015)

Key:
Format in all cases: cell-based
[1] = tested on: Human dermal fibroblasts from Friedreich's Ataxia patients; assay: Rescue of BSO-stressed FRDA fibroblasts (Calcein AM viability); settings: BSO-stressed FRDA fibroblasts (GM04078), less than about 150 nM, read-out: EC50, protection against FRDA
Summary of the method: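 Patient FRDA fibroblasts (GM04078) seeded at 3,000 cells/well, given serially diluted compound from a 150 μM master solution, then stressed next day with 1 mM BSO.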

[2] = tested on: human dermal fibroblasts from CoQ10 deficient patients; assay: Rescue of BSO-stressed fibroblasts from CoQ10 deficient patients (screen similar to Example A); settings: Fibroblast, BSO-stressed fibroblasts from CoQ10 deficient patients harboring a CoQ2 mutation, less than about 150 nM, read-out: EC50, protection against CoQ10 deficiency
Description: (§1) A culture with FRDA fibroblasts was started from a 1 ml vial with approximately 500,000 cells stored in liquid nitrogen. Cells were propagated in 10 cm cell culture dishes by splitting every third day in a ratio of 1:3 until nine plates were available. Once confluent, fibroblasts were harvested. For 54 micro titer plates (96 well-MTP) a total of 14.3 million cells (passage eight) were re-suspended in 480 ml medium, corresponding to 100 μl medium with 3,000 cells/well. The remaining cells were distributed in 10 cm cell culture plates (500,000 cells/plate) for propagation. The plates were incubated overnight at 37° C. in an atmosphere with 95% humidity and 5% CO2 to allow attachment of the cells to the culture plate.
(§2) MTP medium (243 μl) was added to a well of the microtiter plate. The test compounds were unfrozen, and 7.5 μl of a 5 mM stock solution was dissolved in the well containing 243 μl medium, resulting in a 150 μM master solution. Serial dilutions from the master solution were made. The period between the single dilution steps was kept as short as possible (generally less than 1 second).
(§3) Plates were kept overnight in the cell culture incubator. The next day, 10 μl of a 10 mM BSO solution were added to the wells, resulting in a 1 mM final BSO concentration. Forty-eight hours later, three plates were examined under a phase-contrast microscope to verify that the cells in the 0% control (wells E1-H1) were clearly dead. The medium from all plates was discarded, and the remaining liquid was removed by gently tapping the plate inversed onto a paper towel.
(§4) 100 μl of PBS containing 1.2 μM Calcein AM were then added to each well. The plates were incubated for 50-70 minutes at room temperature. After that time the PBS was discarded, the plate gently tapped on a paper towel and fluorescence (excitation/emission wavelengths of 485 nm and 525 nm, respectively) was read on a Gemini fluorescence reader. Data was imported into Microsoft Excel (EXCEL is a registered trademark of Microsoft Corporation for a spreadsheet program) and used to calculate the EC50 concentration for each compound.
Compounds of the invention were tested using a screen similar to the one described in Example A, but substituting FRDA cells with cells obtained from CoQ10 deficient patients harboring a CoQ2 mutation. The compounds were tested for their ability to rescue human dermal fibroblasts from CoQ10 deficient patients from oxidative stress.

[3] = tested on: human dermal fibroblasts from Huntington's patients; assay: Rescue of BSO-stressed fibroblasts from Huntington's patients (screen as Example A); settings: Fibroblast, BSO-stressed Huntington's fibroblasts (GM 04281), less than about 150 nM, read-out: EC50, protection against Huntington's
Summary of the method: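 Coriell Huntington's line GM 04281 plated at 3,000 cells/well and attached overnight at 37 °C. Survival was read by Calcein AM (1.2 μM, 50-70 min, RT) fluorescence at 485/525 nm, giving EC50.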

[4] = tested on: human dermal fibroblasts from LHON patients; assay: Rescue of BSO-stressed fibroblasts from LHON patients (screen as Example A); settings: Fibroblast, BSO-stressed LHON fibroblasts (GM03858), less than about 150 nM, read-out: EC50, protection against LHON
Summary of the method: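 LHON patient fibroblasts (Coriell GM03858) at 3,000 cells/well were pre-treated overnight with compounds serially diluted from a 150 μM master solution. Surviving cells were stained with 1.2 μM Calcein AM for 50-70 min at RT and read by fluorescence (485/525 nm), giving EC50.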

[5] = tested on: human dermal fibroblasts from Parkinson's Disease patients; assay: Rescue of BSO-stressed fibroblasts from Parkinson's Disease patients (screen as Example A); settings: Fibroblast, BSO-stressed Parkinson's Disease fibroblasts (AG20439), less than about 150 nM, read-out: EC50, protection against PD
Description: as §1, §2, §3, §4
Compounds of the invention were screened as described in Example A, but substituting FRDA cells with Parkinson's Disease (PD) cells obtained from the Coriell Cell Repositories (Camden, N.J.; repository number AG20439). The compounds were tested for their ability to rescue human dermal fibroblasts from Parkinson's Disease patients from oxidative stress.

Measured: EC50

CC1=C(C)C(=O)C(CCNC(=O)Cc2cccc3ccccc23)=C(C)C1=O [2-(naphthalen-1-yl)-N-(2-(2,4,5-trimethyl-3,6-dioxocyclohexa-1,4-dienyl)ethyl)acetamide]
< 150 nM: [1] | [2]

CC1=C(C)C(=O)C(CCNC(=O)C(C)c2ccc(Cl)cc2)=C(C)C1=O (stereo not shown) [2-(4-chlorophenyl)-N-(2-(2,4,5-trimethyl-3,6-dioxocyclohexa-1,4-dienyl)ethyl)propanamide]
< 150 nM: [1] | [3] | [2]

COc1ccc(C2(C(=O)NCCC3=C(C)C(=O)C(C)=C(C)C3=O)CC2)cc1 [1-(4-methoxyphenyl)-N-(2-(2,4,5-trimethyl-3,6-dioxocyclohexa-1,4-dienyl)ethyl)cyclopropanecarboxamide]
< 150 nM: [1] | [2]

CC1=C(C)C(=O)C(CCNC(=O)C(O)c2ccc(C(F)(F)F)cc2)=C(C)C1=O (stereo not shown) [2-hydroxy-2-(4-(trifluoromethyl)phenyl)-N-(2-(2,4,5-trimethyl-3,6-dioxocyclohexa-1,4-dienyl)ethyl)acetamide]
not listed: [5]
< 150 nM: all other assays above

CC1=C(C)C(=O)C(CCCC(=O)Nc2ccc3c(c2)OCCO3)=C(C)C1=O [N-(2,3-dihydrobenzo[b][1,4]dioxin-6-yl)-4-(2,4,5-trimethyl-3,6-dioxocyclohexa-1,4-dienyl)butanamide]
not listed: [5]
< 150 nM: all other assays above

CC1=C(C)C(=O)C(CCCC(=O)N2CCCc3ccccc32)=C(C)C1=O [2-(4-(3,4-dihydroquinolin-1 (2H)-yl)-4-oxobutyl)-3,5,6-trimethylcyclohexa-2,5-diene-1,4-dione]
not listed: [5]
< 150 nM: all other assays above

CC1=C(C)C(=O)C(CCNC(=O)C(C)c2ccc(F)cc2)=C(C)C1=O (stereo not shown) [2-(4-fluorophenyl)-N-(2-(2,4,5-trimethyl-3,6-dioxocyclohexa-1,4-dienyl)ethyl)propanamide]
< 150 nM: [1] | [2]

CC1=C(C)C(=O)C(CCC(C)C(=O)NCc2ccccc2)=C(C)C1=O (stereo not shown) [N-benzyl-2-methyl-4-(2,4,5-trimethyl-3,6-dioxocyclohexa-1,4-dienyl)butanamide]
not listed: [2]
< 150 nM: all other assays above

CC1=C(C)C(=O)C(CCCC(=O)Nc2ccc(F)c(F)c2)=C(C)C1=O [N-(3,4-difluorophenyl)-4-(2,4,5-trimethyl-3,6-dioxocyclohexa-1,4-dienyl)butanamide]
not listed: [2]
< 150 nM: all other assays above

CC1=C(C)C(=O)C(CCCC(=O)NCC2(O)CC2)=C(C)C1=O [N-((1-hydroxycyclopropyl)methyl)-4-(2,4,5-trimethyl-3,6-dioxocyclohexa-1,4-dienyl)butanamide]
not listed: [5]
< 150 nM: all other assays above

CC1=C(C)C(=O)C(CCNC(=O)N2CCN(Cc3ccccc3)CC2)=C(C)C1=O [4-benzyl-N-(2-(2,4,5-trimethyl-3,6-dioxocyclohexa-1,4-dienyl)ethyl)piperazine-1-carboxamide]
not listed: [2]
< 150 nM: all other assays above

CC1=C(C)C(=O)C(CCNC(=O)NCCO)=C(C)C1=O [1-(2-hydroxyethyl)-3-(2-(2,4,5-trimethyl-3,6-dioxocyclohexa-1,4-dienyl)ethyl)urea]
not listed: [2]
< 150 nM: all other assays above

CC1=C(C)C(=O)C(CCNC(=O)N(C)Cc2ccc(Cl)cc2)=C(C)C1=O [1-(4-chlorobenzyl)-1-methyl-3-(2-(2,4,5-trimethyl-3,6-dioxocyclohexa-1,4-dienyl)ethyl)urea]
< 150 nM: [3] | [4] | [2]

CC1=C(C)C(=O)C(CCCC(=O)Nc2ccc(Cl)c(Cl)c2)=C(C)C1=O [N-(3,4-dichlorophenyl)-4-(2,4,5-trimethyl-3,6-dioxocyclohexa-1,4-dienyl)butanamide]
not listed: [2]
< 150 nM: all other assays above

COc1ccccc1CC(=O)NCCC1=C(C)C(=O)C(C)=C(C)C1=O [2-(2-methoxyphenyl)-N-(2-(2,4,5-trimethyl-3,6-dioxocyclohexa-1,4-dienyl)ethyl)acetamide]
< 150 nM: [1] | [2]

CC1=C(C)C(=O)C(CCNC(=O)NCc2ccc(Cl)cc2)=C(C)C1=O [1-(4-chlorobenzyl)-3-(2-(2,4,5-trimethyl-3,6-dioxocyclohexa-1,4-dienyl)ethyl)urea]
not listed: [2]
< 150 nM: all other assays above

CC1=C(C)C(=O)C(CCCC(=O)Nc2cccc(Cl)c2Cl)=C(C)C1=O [N-(2,3-dichlorophenyl)-4-(2,4,5-trimethyl-3,6-dioxocyclohexa-1,4-dienyl)butanamide]
not listed: [2]
< 150 nM: all other assays above

CC1=C(C)C(=O)C(CCCC(=O)Nc2cc(Cl)ccc2Cl)=C(C)C1=O [N-(2,5-dichlorophenyl)-4-(2,4,5-trimethyl-3,6-dioxocyclohexa-1,4-dienyl)butanamide]
not listed: [2]
< 150 nM: all other assays above

CC1=C(C)C(=O)C(CCCC(=O)NCCc2ccccc2)=C(C)C1=O [N-phenethyl-4-(2,4,5-trimethyl-3,6-dioxocyclohexa-1,4-dienyl)butanamide]
< 150 nM: [3] | [4] | [2]

CC1=C(C)C(=O)C(CCNC(=O)Cc2ccc(F)cc2)=C(C)C1=O [2-(4-fluorophenyl)-N-(2-(2,4,5-trimethyl-3,6-dioxocyclohexa-1,4-dienyl)ethyl)acetamide]
not listed: [2]
< 150 nM: all other assays above

CC1=C(C)C(=O)C(CCNC(=O)NCc2cccnc2)=C(C)C1=O [1-(pyridin-3-ylmethyl)-3-(2-(2,4,5-trimethyl-3,6-dioxocyclohexa-1,4-dienyl)ethyl)urea]
not listed: [2]
< 150 nM: all other assays above

CC1=C(C)C(=O)C(CCNC(=O)CCc2ccc(F)cc2)=C(C)C1=O [3-(4-fluorophenyl)-N-(2-(2,4,5-trimethyl-3,6-dioxocyclohexa-1,4-dienyl)ethyl)propanamide]
< 150 nM: [1] | [2]

CC1=C(C)C(=O)C(CCCC(=O)Nc2ccncc2)=C(C)C1=O [N-(pyridin-4-yl)-4-(2,4,5-trimethyl-3,6-dioxocyclohexa-1,4-dienyl)butanamide]
not listed: [2]
< 150 nM: all other assays above

CC1=C(C)C(=O)C(CCNC(=O)C2(c3ccccc3)CC2)=C(C)C1=O [1-phenyl-N-(2-(2,4,5-trimethyl-3,6-dioxocyclohexa-1,4-dienyl)ethyl)cyclopropanecarboxamide]
< 150 nM: [1] | [4] | [2]

CC1=C(C)C(=O)C(CCNC(=O)c2ccc(C#N)cc2)=C(C)C1=O [4-cyano-N-(2-(2,4,5-trimethyl-3,6-dioxocyclohexa-1,4-dienyl)ethyl)benzamide]
< 150 nM: [1] | [4] | [2]
